ChEMBL document CHEMBL1134116, “Ethambutol analogues as potential antimycobacterial agents” (Bioorg Med Chem Lett, 2001)
Calls of active or inactive are those of the source. No cut-off for these calls is given here.

Key:
[1] = tested on: Mycolicibacterium smegmatis; test: Antimycobacterial activity was evaluated against Mycobacterium smegmatis; Active; assay type: functional, organism-based
[2] = tested on: Mycolicibacterium smegmatis; test: Antimycobacterial activity was evaluated against Mycobacterium smegmatis; Inactive; assay type: functional, organism-based

| Structure (SMILES) | Activity [1] | Activity [2] |
| --- | --- | --- |
| CC(C)[C@@H](CO)NCCN[C@H](CO)C(C)C | Active |  |
| OCCNCCNCCO | Active | inactive |
| COC(=O)[C@H](CO)NCCN[C@@H](CO)C(=O)OC |  | inactive |
| OC[C@H]1N[C@@H](CSc2ccccc2)C(O)[C@H]1O (stereo not given in full) | Active |  |
| OC[C@H](Cc1ccccc1)NCCN[C@@H](CO)Cc1ccccc1 | Active |  |
| CC[C@@H](CO)NCCN1CCC[C@H]1CO | Active |  |
| O=C(O)CNCCNCC(=O)O |  | inactive |
| CC[C@H](CO)NCCN[C@@H](CC)CO | Active |  |
| CC[C@@H](CO)NCCN[C@@H](C)CO | Active |  |
| O=C(O)CN(CCN(CC(=O)O)CC(=O)O)CC(=O)O |  | inactive |
| OC[C@@H]1CCCN1CCN1CCC[C@H]1CO | Active |  |
| CC[C@@H](CO)NCCN[C@H](C)CO | Active |  |
| CC[C@@H](CO)NCCN[C@@H](CC)CO | Active |  |
| CC(C)C[C@@H](CO)NCCN[C@@H](CO)CC(C)C | Active |  |
